Source: US20260234188A1, “CHEMOKINE-BINDING PEPTIDES” (Oxford University Innovation Limited, priority 2022, published 2026)
Ends that are not written are not given here. Peptide text beside a SMILES is read from it.

Tests used:
Conditions in all cases: HD2 mutant peptides 10 μM, chemokine at EC80
[1] = biological target: T1, CCL15 (Homo sapiens, UniProt Q16663); assay: CCL15-induced cell migration assay; type: cell-based
T1 sequence (Q16663 22-113): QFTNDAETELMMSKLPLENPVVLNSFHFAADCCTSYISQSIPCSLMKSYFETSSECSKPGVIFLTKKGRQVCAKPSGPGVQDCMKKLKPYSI
Procedure: (§1) FIGS. 24 and 25. Effect of exemplar mutant HD2 peptides on chemotaxis. Box-whisker plots showing the effect of the exemplar mutant HD2 peptides on cell migration induced by indicated human chemokines. All experiments were performed as at least three technical and between one to three biological replicates, and individual data points are indicated. […] Chemokine and cell type names are indicated. HD2SCR is a scrambled version of HD2 used as negative control. All peptides were at 10 μM final concentration and chemokines at EC80 doses. Statistically significant differences (compared to control, coloured blue), using Dunnett's test with correction for multiple comparisons, are indicated by asterisks: ****=P≤0.0001, ***=P≤0.001, **=P≤0.01, *=P≤0.05.
(§2) The J:CXCR1 cell line was generated by transfecting Jurkat cells by electroporation with PvuI-linearized plasmid D1398 and selecting with blasticidin (Sigma-Aldrich, Cat #203350, […]). […] J:CXCR1 cells were cultured in RPMI-1640 media (Gibco), supplemented with 10% FBS and 5 mM L-Glutamine with blasticidin. For J:CXCR1 migration assays, 300,000 cells/well were added to the top chamber of a 3 μm Transwell insert (Corning) in 50 μL of migration media (RPMI-1640, 0.5% FBS, 4 mM L-Glutamine, 0.05% DMSO). […] Cell counts were determined by Attune NxT Flow Cytometer Plate Reader (ThermoFisher), based on cell size parameters FSC-H/SSC-H. Experiments were performed in 3 technical and 3 biological replicates. […] Statistical significances between control experimental groups was evaluated using Dunnett's test. […] EC80 was calculated by fitting a chemokine dose-response curve with 3 parameters (fixing the top to 100%). IC50 was calculated by fitting an inhibitor response curve with 4 parameters.
(§3) Migration assays using THP1, activated T-cell (ATC) and J:CXCR1 (Jurkat cells stably transfected with CXCR1 receptor) were performed as described previously. […] EC80 was calculated by fitting a chemokine dose-response curve with 3 parameters (fixing the top to 100%). IC50 was calculated by fitting an inhibitor response curve with 4 parameters. […]

[2] = biological target: T2, CCL21 (Homo sapiens, UniProt O00585); assay: CCL21-induced cell migration assay; type: cell-based
T2 sequence (O00585 24-134): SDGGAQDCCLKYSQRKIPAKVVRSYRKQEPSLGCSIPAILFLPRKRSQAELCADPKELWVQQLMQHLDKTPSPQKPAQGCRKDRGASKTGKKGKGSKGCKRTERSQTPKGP
Procedure: as §1
(§4) The J:CXCR1 cell line was generated by transfecting Jurkat cells by electroporation with PvuI-linearized plasmid D1398 and selecting with blasticidin (Sigma-Aldrich, Cat #203350, […]). […] J:CXCR1 cells were cultured in RPMI-1640 media (Gibco), supplemented with 10% FBS and 5 mM L-Glutamine with blasticidin. For J:CXCR1 migration assays, 300,000 cells/well were added to the top chamber of a 3 μm Transwell insert (Corning) in 50 μL of migration media (RPMI-1640, 0.5% FBS, 4 mM L-Glutamine, 0.05% DMSO). The bottom chamber contained 150 μL of chemokine, with or without peptide. Cells were migrated at 37° C. in 5% CO2 for 4 hours. The plate was incubated on a shaking platform for 10 minutes, 800 rpm, at 37° C., and 150 μL from the bottom of the plate transferred into a U-bottom plate containing 50 μL of migration media. Cell counts were determined by Attune NxT Flow Cytometer Plate Reader (ThermoFisher), based on cell size parameters FSC-H/SSC-H. Experiments were performed in 3 technical and 3 biological replicates. THP-1 migration assays were carried out using methods known in the art. Activated T-cell assays were carried out using methods known in the art, with the following modifications in the isolation process. Peripheral blood cells were obtained from leucocyte cones (NHS Blood Transfusion Services), following which, T-cells were isolated using two rounds of human CD8+ T-cell isolation kit (480011, BioLegend). At day 10 after activation, T-cells were frozen at 20 E6 cells/ml in TexMACS medium supplemented with 10% DMSO (D2650, Sigma) in liquid nitrogen. Prior to use, activated T-cells were recovered for 24 hours in TexMACs medium at 0.3 E6 cells/ml and incubated at 37° C. in 5% CO2. Chemokine sources are described in Supplementary information Table 3. Statistical significances between control experimental groups was evaluated using Dunnett's test. IC50 experiments were performed at the EC80 dose of chemokine. EC80 was calculated by fitting a chemokine dose-response curve with 3 parameters (fixing the top to 100%). IC50 was calculated by fitting an inhibitor response curve with 4 parameters.
(§5) Migration assays using THP1, activated T-cell (ATC) and J:CXCR1 (Jurkat cells stably transfected with CXCR1 receptor) were performed as described previously. IC50 experiments were performed at the EC80 dose of chemokine. EC80 was calculated by fitting a chemokine dose-response curve with 3 parameters (fixing the top to 100%). IC50 was calculated by fitting an inhibitor response curve with 4 parameters. R-packages used were ggupset_0.3.0, DescTools_0.99.44, and drc_3.0-1.

[3] = biological target: T3, CXCL5 (Homo sapiens, UniProt P42830); assay: CXCL5-induced cell migration assay; type: cell-based
T3 sequence (P42830 37-114): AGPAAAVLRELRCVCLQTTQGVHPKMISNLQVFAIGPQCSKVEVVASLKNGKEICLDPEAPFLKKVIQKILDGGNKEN
Procedure: as §1, §2, §3

[4] = biological target: T4, CXCL6 (Homo sapiens, UniProt P80162); assay: cell-based
T4 sequence (P80162 38-114): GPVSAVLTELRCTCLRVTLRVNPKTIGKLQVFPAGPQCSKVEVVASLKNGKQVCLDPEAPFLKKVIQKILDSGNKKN
Procedure: FIG. 11. […] Technical replicates are shown as individual data points. […] The response curve (solid blue line) and its 95% confidence interval (grey ribbon) were calculated using a 4-parameter log-logistic plot.
as §4, §5

Measured: chemotaxis compared with the parental HD2 peptide

CC(C)C[C@H](NC(=O)[C@@H]1CCCN1C(=O)[C@H](C)NC(=O)[C@H](Cc1ccc(O)cc1)NC(=O)[C@H](C)NC(=O)[C@@H](NC(=O)[C@H](Cc1ccc(O)cc1)NC(=O)[C@H](CC(=O)O)NC(=O)[C@H](CC(=O)O)NC(=O)[C@H](CCC(=O)O)NC(=O)[C@@H](N)CCC(=O)O)[C@@H](C)O)C(=O)N[C@H](C(=O)N[C@@H](CS)C(=O)N[C@@H](Cc1ccc(O)cc1)C(=O)N[C@@H](Cc1ccccc1)C(=O)N[C@@H](CS)C(N)=O)[C@@H](C)O [HD2_C16, EEDDYTAYAPLTCYFC] (H-EEDDYTAYAPLTCYFC-NH2; N-terminus assumed)
significant reduction in chemotaxis: all assays above

EEDDWTAYAPLTCYFT-NH2 [HD2_W5, EEDDWTAYAPLTCYFT]
significant reduction in chemotaxis: [2]

EEDDYTAYWPLTCYFT [A9W]
significant reduction in chemotaxis: all assays above

EEDDYWAYAPLTCYFT [HD2_W6]
significant reduction in chemotaxis: all assays above
